Values joined by “and” are separate entries in the source; they are usually repeats but may differ in a detail not shown here. Equal entries are not always repeated. “Also recorded” adds a separate entry of the source.
Assays:
COX = COX fluorescent activity assay on mouse kidney lysates; assay type: biochemical
Description: We further sought to experimentally validate the bioactivities of the COX inhibitors predicted by DTINet (Methods). First, we tested their inhibitory potencies on the mouse kidney lysates using the COX fluorescent activity assays.
(§1) Following stimulation, kidneys were harvested from mice, and macrophages from the above treatment were homogenized in 5 ml of cold phosphate-buffered saline (PBS) containing protease inhibitors and centrifuged at 10,000×g for 15 min at 4 °C. The supernatant was assayed by the COX fluorescent activity assay kit according to the manufacturer’s instructions.

COX-1 [1] = biological target: T1, COX-1 (Mus musculus, UniProt P22437); test: COX selective inhibition assay on tissue extracts (COX fluorescent activity, distinguished with SC-560/Dup-697): COX-1; assay type: biochemical; conditions: mouse peritoneal macrophage lysates
T1 construct: the tissue extracts from the mouse kidney and the peritoneal macrophages; from tissue; host or cells: mouse kidney and thioglycollate-elicited peritoneal macrophages (C57BL/6J), homogenate supernatant
T1 sequence (P22437 27-602): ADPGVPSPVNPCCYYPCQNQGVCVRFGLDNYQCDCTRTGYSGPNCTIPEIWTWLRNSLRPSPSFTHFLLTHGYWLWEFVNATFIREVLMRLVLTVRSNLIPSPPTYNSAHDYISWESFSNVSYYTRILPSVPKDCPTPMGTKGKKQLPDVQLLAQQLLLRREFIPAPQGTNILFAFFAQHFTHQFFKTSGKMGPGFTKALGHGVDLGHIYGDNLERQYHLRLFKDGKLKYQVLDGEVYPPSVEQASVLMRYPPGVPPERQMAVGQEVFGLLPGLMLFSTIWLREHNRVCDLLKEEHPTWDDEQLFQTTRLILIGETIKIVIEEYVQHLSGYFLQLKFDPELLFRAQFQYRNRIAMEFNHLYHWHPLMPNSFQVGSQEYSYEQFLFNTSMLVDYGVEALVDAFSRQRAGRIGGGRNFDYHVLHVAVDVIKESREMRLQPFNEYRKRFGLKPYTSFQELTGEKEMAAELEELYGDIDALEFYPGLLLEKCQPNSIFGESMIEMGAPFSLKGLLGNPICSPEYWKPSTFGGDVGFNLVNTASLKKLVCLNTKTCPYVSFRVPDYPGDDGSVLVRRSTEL
Description: (§2) Next, the tissue extracts from the mouse kidney and the peritoneal macrophages were used for COX selective inhibition assays. […] To further evaluate the selectivity of these predicted drugs on COX-1 and COX-2, we also used the human recombinant enzyme assays to measure the levels of PGE 2 under COX-1 and COX-2 catalyzes, respectively.
(§3) Peritoneal macrophages were isolated from peritoneum by lavage using 20 ml Dulbecco's modified Eagle’s medium (DMEM) and seeded into six-well plates using […] in DMEM of 10% fetal bovine serum (FBS). Non-adherent cells were removed 6 h later, whereas adherent cells were refed with DMEM of 10% FBS and allowed to recover overnight. […] Cells were harvested for subsequent analysis.
as §1

COX-2 [2] = biological target: T2, COX-2 (Mus musculus, UniProt Q05769); test: COX selective inhibition assay on tissue extracts (COX fluorescent activity, distinguished with SC-560/Dup-697): COX-2; assay type: biochemical; conditions: mouse peritoneal macrophage lysates
T2 construct: the tissue extracts from the mouse kidney and the peritoneal macrophages; from tissue; host or cells: mouse kidney and thioglycollate-elicited peritoneal macrophages (C57BL/6J), homogenate supernatant
T2 sequence (Q05769 18-604): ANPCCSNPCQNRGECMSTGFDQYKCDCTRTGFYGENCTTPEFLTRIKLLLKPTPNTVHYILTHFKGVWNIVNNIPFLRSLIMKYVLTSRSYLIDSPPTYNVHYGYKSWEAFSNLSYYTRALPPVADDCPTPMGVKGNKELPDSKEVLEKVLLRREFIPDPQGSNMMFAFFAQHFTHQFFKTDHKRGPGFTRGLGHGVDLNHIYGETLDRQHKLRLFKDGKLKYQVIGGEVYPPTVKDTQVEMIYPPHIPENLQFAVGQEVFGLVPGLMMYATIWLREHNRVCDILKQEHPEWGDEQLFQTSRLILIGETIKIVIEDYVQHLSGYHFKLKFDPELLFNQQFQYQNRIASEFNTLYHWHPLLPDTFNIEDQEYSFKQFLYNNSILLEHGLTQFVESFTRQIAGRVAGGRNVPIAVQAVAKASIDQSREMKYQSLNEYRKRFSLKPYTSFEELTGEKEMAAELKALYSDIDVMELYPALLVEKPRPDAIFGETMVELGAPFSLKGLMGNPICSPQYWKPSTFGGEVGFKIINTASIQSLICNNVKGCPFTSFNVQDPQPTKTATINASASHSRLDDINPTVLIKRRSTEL
Description: as §2, §3, §1

recombinant human COX-1 = recombinant human COX-1 (Homo sapiens, UniProt P23219); test: Human recombinant enzyme assay (PGE2 by ELISA): COX-1; assay type: biochemical; conditions: PGE2 levels, 10 μM arachidonic acid
recombinant human COX-1, sequence (P23219 24-599): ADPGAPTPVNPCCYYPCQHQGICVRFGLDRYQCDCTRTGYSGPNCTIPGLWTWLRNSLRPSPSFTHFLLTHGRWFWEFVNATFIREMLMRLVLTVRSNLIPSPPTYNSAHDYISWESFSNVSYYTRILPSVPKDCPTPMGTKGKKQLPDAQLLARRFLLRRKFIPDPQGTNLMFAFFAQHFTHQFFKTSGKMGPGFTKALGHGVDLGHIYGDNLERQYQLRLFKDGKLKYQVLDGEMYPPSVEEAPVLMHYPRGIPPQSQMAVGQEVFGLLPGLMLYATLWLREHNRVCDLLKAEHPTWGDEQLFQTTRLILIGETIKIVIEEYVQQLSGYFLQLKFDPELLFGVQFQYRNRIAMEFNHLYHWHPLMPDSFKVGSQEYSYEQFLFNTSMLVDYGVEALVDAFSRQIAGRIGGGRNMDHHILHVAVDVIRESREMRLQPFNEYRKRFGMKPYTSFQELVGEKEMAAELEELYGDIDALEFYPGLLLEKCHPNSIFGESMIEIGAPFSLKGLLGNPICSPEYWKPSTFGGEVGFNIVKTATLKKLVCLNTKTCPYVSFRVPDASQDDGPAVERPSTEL
Description: as §2
(§4) Then the 10 μM arachidonic acid was added to start the reaction and allowed the process to proceed for 10 min. The reaction was terminated by diluting the reaction into buffer containing 25 μM indomethacin. The final levels of PGE 2 were measured by ELISA.

COX-2 [3] = biological target: T3, COX-2 (Homo sapiens, UniProt P35354); test: Human recombinant enzyme assay (PGE2 by ELISA): COX-2; assay type: biochemical; conditions: PGE2 levels, 10 μM arachidonic acid
T3 sequence (P35354 18-604): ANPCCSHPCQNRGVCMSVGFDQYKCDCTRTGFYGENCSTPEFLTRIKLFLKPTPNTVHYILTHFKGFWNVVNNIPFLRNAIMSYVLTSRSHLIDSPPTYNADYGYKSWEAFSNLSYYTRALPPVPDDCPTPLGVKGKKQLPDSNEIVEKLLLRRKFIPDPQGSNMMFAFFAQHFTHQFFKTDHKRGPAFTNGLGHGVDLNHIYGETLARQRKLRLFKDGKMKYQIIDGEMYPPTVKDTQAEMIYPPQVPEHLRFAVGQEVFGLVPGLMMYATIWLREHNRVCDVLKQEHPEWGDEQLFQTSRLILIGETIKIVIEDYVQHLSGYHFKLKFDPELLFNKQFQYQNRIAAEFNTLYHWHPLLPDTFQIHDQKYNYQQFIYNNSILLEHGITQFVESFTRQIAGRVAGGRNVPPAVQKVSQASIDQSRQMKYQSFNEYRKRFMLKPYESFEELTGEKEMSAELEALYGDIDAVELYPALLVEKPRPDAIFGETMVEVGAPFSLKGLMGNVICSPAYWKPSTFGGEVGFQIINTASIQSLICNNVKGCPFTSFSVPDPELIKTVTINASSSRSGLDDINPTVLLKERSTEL
Description: as §2, §4

[4] = test system: LPS-stimulated peritoneal macrophages; test: RT-PCR of proinflammatory factors in LPS-stimulated peritoneal macrophages; assay type: cell-based, mouse; conditions: LPS 10 ng/ml
Description: Lipopolysaccharide (LPS) was used to stimulate the cultured peritoneal macrophages for the cellular inflammation model.
as §3
Total RNA was extracted from the whole-cell lysates using the Trnzol-A^+ reagent (Tiangen, Cat. no. DP421, China). Reverse transcription was performed using TIANScript RT Kit (Tiangen, Cat. no. KR104-02, China). All real-time PCR reactions were carried out on ABI ViiA 7 Real-Time System (Life Technologies, USA) using TransStart Top Green qPCR SuperMix (Transgen, Cat. no. AQ131-03, China). The formula 2^−ΔΔCt was used to calculate the relative expression. The expression of the housekeeping gene GAPDH was used as an internal control.

COX-2 [5] = biological target: T3, COX-2; conditions: compounds at their IC50 concentrations, 2 h
COX-1 [6] = conditions: read-out: IC50 COX-1; common NSAIDs; cited from earlier work
[7] = test system: GABA B-subtype (GABA-B) receptors; design: method as in ref 27 (Wu et al., 2011); conditions: previous studies, ref 27 (Wu et al., 2011); cited from earlier work
[8] = test system: GABA A-subtype (GABA-A) receptors; design: method as in ref 28 (Wassef et al., 2003); conditions: previous studies, ref 28 (Wassef et al., 2003); cited from earlier work
GlyRs = test system: GlyRs; design: method as in Liu et al., 2009; conditions: rat hippocampal neurons, ref Liu et al., 2009; cited from earlier work
COX-2 [9] = conditions: cited from earlier work
alpha2-containing GlyRs = test system: alpha2-containing GlyRs; design: method as in Thio et al., 2003; conditions: embryonic mouse hippocampal neurons, low-affinity binding manner, ref Thio et al., 2003; cited from earlier work

SMILES | IC50 (COX) | Relative COX activity inhibition (%) COX-1 (COX-1 [1]) [%] | Relative COX activity inhibition (%) COX-2 (COX-2 [2]) [%] | IC50 (COX-2 [3]) [µM] | inhibition of the binding of [3H] celecoxib to COX-2 (COX-2 [5]) | further results
CCCc1nc2c(C)cc(-c3nc4ccccc4n3C)cc2n1Cc1ccc(-c2ccccc2C(=O)O)cc1 [Telmisartan] | 56.1 µM | 63 | 37 | 91.8 | about 48.33% | IC50 (recombinant human COX-1): 42 µM; IL-12p35 production induced by LPS (mRNA, RT-PCR) [4]: significantly inhibited; also recorded: much stronger suppression effect; LPS induced expression of IL-6 (mRNA, RT-PCR) [4]: strong inhibitory effect; LPS induced expression of TNF-α (mRNA, RT-PCR) [4]: strong inhibitory effect; induction of IL-1β (mRNA, RT-PCR) [4]: strongest suppression effect
CCCNC(=O)NS(=O)(=O)c1ccc(Cl)cc1 [Chlorpropamide] | 290 µM and ~300 µM | 37 | 63 | 152 | ~14.00% | IC50 (recombinant human COX-1): 224 µM
CN1CCN(C2=Nc3cc(Cl)ccc3Nc3ccccc32)CC1 [Clozapine] | – | – | – | – | – | interaction with GABA-B receptors [7]: direct interaction; effect on GABA-A receptors in the cortex [8]: antagonize; effect on GlyRs (GlyRs): non-competitive antagonist
CS(=O)(=O)c1ccc(C2=C(c3ccccc3)C(=O)OC2)cc1 [rofecoxib] | – | – | – | – | – | IC50 (COX-2 [9]): 25 µM; IC50 (COX-1 [6]): […]
CNC1=Nc2ccc(Cl)cc2C(c2ccccc2)=[N+]([O-])C1 [Chlordiazepoxide] | – | – | – | – | – | effect on alpha2-containing GlyRs (alpha2-containing GlyRs): block
NCCCC(O)(P(=O)(O)O)P(=O)(O)O [Alendronate] | 160 µM | 57 | 43 | 184 | ~40.67% | IL-12p35 production induced by LPS (mRNA, RT-PCR) [4]: significantly inhibited
O=C1CN=C(c2ccccc2)c2cc([N+](=O)[O-])ccc2N1 [Nitrazepam] | – | – | – | – | – | effect on alpha2-containing GlyRs (alpha2-containing GlyRs): block

Reference: paper PMC5603535, “A network integration approach for drug-target interaction prediction and computational drug repositioning from heterogeneous information” (Nature Communications, 2017)
